These molecules were tested against GCN2 (Homo sapiens, UniProt Q9P2K8) (assay: TR-FRET biochemical assay for inhibition of GCN2 (Example 106, for Example 1-4BB)). Conditions: Table 8.
Sequence of GCN2 (Q9P2K8 whole entry): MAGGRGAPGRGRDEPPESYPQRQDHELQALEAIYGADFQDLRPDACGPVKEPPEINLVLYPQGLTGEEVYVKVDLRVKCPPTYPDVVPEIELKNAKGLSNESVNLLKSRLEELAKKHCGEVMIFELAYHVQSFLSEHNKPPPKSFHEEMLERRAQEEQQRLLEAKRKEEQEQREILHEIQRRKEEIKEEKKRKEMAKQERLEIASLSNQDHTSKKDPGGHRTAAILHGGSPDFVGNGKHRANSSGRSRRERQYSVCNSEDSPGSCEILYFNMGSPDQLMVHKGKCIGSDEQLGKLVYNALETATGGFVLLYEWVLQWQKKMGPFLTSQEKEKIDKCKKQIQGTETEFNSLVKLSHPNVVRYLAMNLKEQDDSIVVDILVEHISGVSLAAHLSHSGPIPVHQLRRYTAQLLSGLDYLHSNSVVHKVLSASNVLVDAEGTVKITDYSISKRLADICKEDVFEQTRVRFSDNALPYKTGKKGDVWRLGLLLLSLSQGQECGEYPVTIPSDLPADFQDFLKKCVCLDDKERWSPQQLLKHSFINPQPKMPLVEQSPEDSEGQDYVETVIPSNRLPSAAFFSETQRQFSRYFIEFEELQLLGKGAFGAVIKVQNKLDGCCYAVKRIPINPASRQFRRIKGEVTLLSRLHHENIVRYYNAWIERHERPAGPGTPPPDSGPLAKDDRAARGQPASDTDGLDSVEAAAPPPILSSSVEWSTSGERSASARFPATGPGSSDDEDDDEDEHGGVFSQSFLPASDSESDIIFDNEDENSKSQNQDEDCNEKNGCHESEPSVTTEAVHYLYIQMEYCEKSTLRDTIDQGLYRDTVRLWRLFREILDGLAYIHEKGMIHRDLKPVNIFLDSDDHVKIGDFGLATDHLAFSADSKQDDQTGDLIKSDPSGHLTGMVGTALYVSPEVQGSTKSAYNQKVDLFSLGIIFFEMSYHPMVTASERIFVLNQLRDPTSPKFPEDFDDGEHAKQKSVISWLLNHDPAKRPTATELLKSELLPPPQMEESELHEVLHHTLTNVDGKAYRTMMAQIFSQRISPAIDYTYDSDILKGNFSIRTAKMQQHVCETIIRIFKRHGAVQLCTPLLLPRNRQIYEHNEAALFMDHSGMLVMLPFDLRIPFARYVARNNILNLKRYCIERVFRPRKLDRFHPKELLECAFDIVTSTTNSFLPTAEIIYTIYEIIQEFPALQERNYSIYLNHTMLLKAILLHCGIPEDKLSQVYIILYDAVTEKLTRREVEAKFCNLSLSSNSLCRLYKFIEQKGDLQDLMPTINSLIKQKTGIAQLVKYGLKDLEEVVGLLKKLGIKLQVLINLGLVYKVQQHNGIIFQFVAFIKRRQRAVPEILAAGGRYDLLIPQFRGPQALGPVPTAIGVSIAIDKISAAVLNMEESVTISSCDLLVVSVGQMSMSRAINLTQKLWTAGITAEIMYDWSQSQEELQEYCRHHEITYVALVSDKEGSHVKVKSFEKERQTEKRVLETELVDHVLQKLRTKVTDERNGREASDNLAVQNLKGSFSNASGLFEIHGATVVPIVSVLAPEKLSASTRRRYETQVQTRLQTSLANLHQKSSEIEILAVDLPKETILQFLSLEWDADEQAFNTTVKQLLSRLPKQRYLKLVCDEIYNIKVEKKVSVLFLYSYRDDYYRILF
`Cn1cc(Cl)cc(S(=O)(=O)Nc2ccc(F)c(-c3ccc4c(-c5ncc[nH]5)n[nH]c4c3F)c2F)c1=O` [Example 2AN, 5-chloro-N-(2,4-difluoro-3-(7-fluoro-3-(1H-imidazol-2-yl)-1H-indazol-6-yl)phenyl)-1-methyl-2-oxo-1,2-dihydro-pyridine-3-sulfonamide] gave an IC50 of under 500 nM. `CC(C)c1ccc(S(=O)(=O)Nc2ccc(F)c(-c3ccc4c(-c5ncc[nH]5)n[nH]c4c3F)c2F)cc1` [Example 2G, N-(2,4-difluoro-3-(7-fluoro-3-(1H-imidazol-2-yl)-1H-indazol-6-yl)phenyl)-4-isopropyl-benzenesulfonamide] was tested, and the IC50 was over 10000 nM. With `COc1ncc(Cl)cc1S(=O)(=O)Nc1ccc(F)c(-c2ccc3cn[nH]c3c2)c1F` [Example 2BY, 5-chloro-N-(2,4-difluoro-3-(1H-indazol-6-yl)-phenyl)-2-methoxypyridine-3-sulfonamide] the IC50 was 500 to 2500 nM. `COc1ncc(Cl)cc1S(=O)(=O)Nc1ccc(F)c(-c2ccc3c(-c4ncc[nH]4)n[nH]c3c2F)c1Cl` [Example 2T, 5-chloro-N-(2-chloro-4-fluoro-3-(7-fluoro-3-(1H-imidazol-2-yl)-1H-indazol-6-yl)phenyl)-2-methoxypyridine-3-sulfonamide] showed an IC50 of under 500 nM. For `Cc1nn(C(F)F)cc1S(=O)(=O)Nc1ccc(F)c(-c2ccc3c(-c4ncc[nH]4)n[nH]c3c2F)c1F` [Example 2BU, N-(2,4-difluoro-3-(7-fluoro-3-(1H-imidazol-2-yl)-1H-indazol-6-yl)phenyl)-1-(difluoromethyl)-3-methyl-1H-pyrazole-4-sulfonamide], the IC50 was under 500 nM.

Same assay, conditions: Table 9
For `COc1ncccc1S(=O)(=O)Nc1ccc(F)c(-c2ccc3c(C(=O)NCCCO)n[nH]c3c2F)c1F` [Example 3BI, 6-(2,6-difluoro-3-((2-methoxypyridine)-3-sulfonamido)phenyl)-7-fluoro-N-(3-hydroxypropyl)-1H-indazole-3-carboxamide], the IC50 was 500 to 2500 nM. `COc1ncc(Cl)cc1S(=O)(=O)Nc1ccc(F)c(-c2ccc3c(C(=O)Nc4nnn(C)n4)n[nH]c3c2F)c1F` [Example 3CZ, 6-(3-((5-chloro-2-methoxy-pyridine)-3-sulfonamido)-2,6-difluorophenyl)-7-fluoro-N-(2-methyl-2H-tetrazol-5-yl)-1H-indazole-3-carboxamide] showed an IC50 of 500 to 2500 nM. Work on `COc1ncc(F)cc1S(=O)(=O)Nc1ccc(F)c(-c2ccc3c(C(=O)NCC4CCN(C)CC4)n[nH]c3c2F)c1F` [Example 3AK, 6-(2,6-difluoro-3-((5-fluoro-2-methoxypyridine)-3-sulfonamido)phenyl)-7-fluoro-N-((1-methylpiperidin-4-yl)methyl)-1H-indazole-3-carboxamide] yielded an IC50 of under 500 nM. With `COc1ncc(F)cc1S(=O)(=O)Nc1ccc(F)c(-c2ccc3c(C(=O)Nc4cnoc4)n[nH]c3c2F)c1F` [Example 3BN, 6-(2,6-difluoro-3-((5-fluoro-2-methoxypyridine)-3-sulfonamido)phenyl)-7-fluoro-N-(isoxazol-4-yl)-1H-indazole-3-carboxamide] the IC50 was under 500 nM. `COc1nc(C)c(Cl)cc1S(=O)(=O)Nc1ccc(F)c(-c2ccc3c(C(=O)NCCCN(C)C)n[nH]c3c2F)c1F` [Example 3DN, 6-(3-((5-chloro-2-methoxy-6-methylpyridine)-3-sulfon-amido)-2,6-difluorophenyl)-N-(3-(dimethylamino)propyl)-7-fluoro-1H-indazole-3-carboxamide] gave an IC50 of under 500 nM. For `O=C(Nc1cnn(CCO)c1)c1n[nH]c2c(F)c(-c3c(F)ccc(NS(=O)(=O)c4cc(F)cc5c4CCC5O)c3F)ccc12` (stereo not drawn) [Example 4AJ], the IC50 was under 500 nM. `COc1ncc(Cl)cc1S(=O)(=O)Nc1cc(F)cc(-c2ccc3c(C(N)=O)n[nH]c3c2F)c1F` [Example 3CF, 6-(3-((5-chloro-2-methoxy-pyridine)-3-sulfonamido)-2,5-difluorophenyl)-7-fluoro-1H-indazole-3-carboxamide] was tested, and the IC50 was under 500 nM.

Reference: patent US20220388964A1 (HiberCell, Inc., priority 2019, published 2022)
